{"source": "patent US7576215B2", "about": "“Quinolines and pharmaceutical compositions thereof” (Wyeth, priority 2003, dated 2009)", "data": [{"units": {"melting point": "°C"}, "values": [{"smiles": "COC(=O)/C=C/c1ccc(COc2cccc(-c3c(-c4ccccc4)cnc4c(C(F)(F)F)cccc34)c2)cc1", "melting point": 91}, {"smiles": "COC(=O)/C=C/c1ccc(COc2cc(-c3c(-c4ccccc4)cnc4c(C(F)(F)F)cccc34)ccc2Cl)cc1", "melting point": "149 to 151"}, {"smiles": "O=C(O)/C=C/c1ccc(COc2cc(-c3c(-c4ccccc4)cnc4c(C(F)(F)F)cccc34)ccc2Cl)cc1", "melting point": 257}, {"smiles": "O=S(=O)(c1ccccc1)c1cnc2c(C(F)(F)F)cccc2c1-c1ccccc1", "melting point": "149 to 151"}, {"smiles": "Cc1ccccc1-c1cnc2c(C(F)(F)F)cccc2c1-c1cccc(NC(=O)Nc2ccccc2)c1", "melting point": "192 to 195"}, {"smiles": "Cc1ccccc1-c1cnc2c(C(F)(F)F)cccc2c1-c1cccc(NC(=O)Nc2ccccc2Cl)c1", "melting point": "224 to 226"}, {"smiles": "OCCc1ccc(COc2cccc(-c3c(-c4ccccc4)cnc4c(C(F)(F)F)cccc34)c2)cc1", "melting point": 50}, {"smiles": "Cc1ccccc1-c1cnc2c(C(F)(F)F)cccc2c1-c1cccc(N)c1", "melting point": "148 to 151"}, {"smiles": "O=C(Nc1ccccc1)c1cnc2c(C(F)(F)F)cccc2c1-c1ccccc1", "note": "[Example 72, N, 4-DIPHENYL-8-(TRIFLUOROMETHYL)QUINOLINE-3-CARBOXAMIDE]", "melting point": "207 to 208"}, {"smiles": "O=C(Nc1ccccc1)Nc1cccc(-c2c(-c3ccccc3)cnc3c(C(F)(F)F)cccc23)c1", "note": "[Example 75, N-PHENYL-N′-{3-[3-PHENYL-8-(TRIFLUOROMETHYL)QUINOLIN-4-YL]PHENYL}UREA]", "melting point": "202 to 205"}, {"smiles": "O=C(Nc1cccc(-c2c(-c3ccccc3)cnc3c(C(F)(F)F)cccc23)c1)Nc1ccccc1Cl", "note": "[Example 76, N-(2-CHLOROPHENYL)-N′-{3-[3-PHENYL-8-(TRIFLUOROMETHYL)QUINOLIN-4-YL]PHENYL}UREA]", "melting point": "192 to 195"}, {"smiles": "Cc1ccc(NC(=O)c2cnc3c(C(F)(F)F)cccc3c2-c2ccccc2)cc1", "note": "[Example 368, N-(4-METHYLPHENYL)-4-PHENYL-8-(TRIFLUOROMETHYL)QUINOLINE-3-CARBOXAMIDE]", "melting point": "203 to 205"}, {"smiles": "Cc1cccc(NC(=O)c2cnc3c(C(F)(F)F)cccc3c2-c2ccccc2)c1", "note": "[Example 370, N-(3-METHYLPHENYL)-4-PHENYL-8-(TRIFLUOROMETHYL)QUINOLINE-3-CARBOXAMIDE]", "melting point": "182 to 184"}, {"smiles": "O=C(Nc1cccc(C(F)(F)F)c1)c1cnc2c(C(F)(F)F)cccc2c1-c1ccccc1", "note": "[Example 371, 4-PHENYL-8-(TRIFLUOROMETHYL)-N-[3-(TRIFLUOROMETHYL)PHENYL]QUINOLINE-3-CARBOXAMIDE]", "melting point": "155 to 157"}, {"smiles": "O=C(Nc1ccc(Cl)cc1)c1cnc2c(C(F)(F)F)cccc2c1-c1ccccc1", "note": "[Example 372, N-(4-CHLOROPHENYL)-4-PHENYL-8-(TRIFLUOROMETHYL)QUINOLINE-3-CARBOXAMIDE]", "melting point": "153 to 155"}, {"smiles": "O=C(Nc1cccc(Cl)c1)c1cnc2c(C(F)(F)F)cccc2c1-c1ccccc1", "note": "[Example 373, N-(3-CHLOROPHENYL)-4-PHENYL-8-(TRIFLUOROMETHYL)QUINOLINE-3-CARBOXAMIDE]", "melting point": "159 to 161"}, {"smiles": "O=C(Nc1ccccc1Cl)c1cnc2c(C(F)(F)F)cccc2c1-c1ccccc1", "note": "[Example 374, N-(2-CHLOROPHENYL)-4-PHENYL-8-(TRIFLUOROMETHYL)QUINOLINE-3-CARBOXAMIDE]", "melting point": "173 to 175"}, {"smiles": "O=C(Nc1ccc(F)cc1)c1cnc2c(C(F)(F)F)cccc2c1-c1ccccc1", "note": "[Example 376, N-(4-FLUOROPHENYL)-4-PHENYL-8-(TRIFLUOROMETHYL)QUINOLINE-3-CARBOXAMIDE]", "melting point": "157 to 159"}, {"smiles": "O=C(Nc1cccc(F)c1)c1cnc2c(C(F)(F)F)cccc2c1-c1ccccc1", "note": "[Example 377, N-(3-FLUOROPHENYL)-4-PHENYL-8-(TRIFLUOROMETHYL)QUINOLINE-3-CARBOXAMIDE]", "melting point": "171 to 173"}, {"smiles": "CN(C(=O)c1cnc2c(C(F)(F)F)cccc2c1-c1ccccc1)c1ccccc1", "note": "[Example 378, N-METHYL-N,4-DIPHENYL-8-(TRIFLUOROMETHYL)QUINOLINE-3-CARBOXAMIDE]", "melting point": "188 to 190"}, {"smiles": "Cc1cccc(N(C)C(=O)c2cnc3c(C(F)(F)F)cccc3c2-c2ccccc2)c1", "note": "[Example 379, N-METHYL-N-(3-METHYLPHENYL)-4-PHENYL-8-(TRIFLUOROMETHYL)QUINOLINE-3-CARBOXAMIDE]", "melting point": "174 to 176"}, {"smiles": "Cc1ccc(N(C)C(=O)c2cnc3c(C(F)(F)F)cccc3c2-c2ccccc2)cc1", "note": "[Example 380, N-METHYL-N-(4-METHYLPHENYL)-4-PHENYL-8-(TRIFLUOROMETHYL)QUINOLINE-3-CARBOXAMIDE]", "melting point": "143 to 145"}, {"smiles": "Cc1ccccc1N(C)C(=O)c1cnc2c(C(F)(F)F)cccc2c1-c1ccccc1", "note": "[Example 381, N-METHYL-N-(2-METHYLPHENYL)-4-PHENYL-8-(TRIFLUOROMETHYL)QUINOLINE-3-CARBOXAMIDE]", "melting point": 144}, {"smiles": "CN(C(=O)c1cnc2c(C(F)(F)F)cccc2c1-c1ccccc1)c1cccc(C(F)(F)F)c1", "note": "[Example 382, N-METHYL-4-PHENYL-8-(TRIFLUOROMETHYL)-N-[3-(TRIFLUOROMETHYL)PHENYL]QUINOLINE-3-CARBOXAMIDE]", "melting point": "163 to 165"}, {"smiles": "CN(C(=O)c1cnc2c(C(F)(F)F)cccc2c1-c1ccccc1)c1ccc(Cl)cc1", "note": "[Example 383, N-(4-CHLOROPHENYL)-N-METHYL-4-PHENYL-8-(TRIFLUOROMETHYL)QUINOLINE-3-CARBOXAMIDE]", "melting point": "177 to 179"}, {"smiles": "CN(C(=O)c1cnc2c(C(F)(F)F)cccc2c1-c1ccccc1)c1cccc(Cl)c1", "note": "[Example 384, N-(3-CHLOROPHENYL)-N-METHYL-4-PHENYL-8-(TRIFLUOROMETHYL)QUINOLINE-3-CARBOXAMIDE]", "melting point": "211 to 213"}, {"smiles": "CCc1ccc(N(C)C(=O)c2cnc3c(C(F)(F)F)cccc3c2-c2ccccc2)cc1", "note": "[Example 385, N-(4-ETHYLPHENYL)-N-METHYL-4-PHENYL-8-(TRIFLUOROMETHYL)QUINOLINE-3-CARBOXAMIDE]", "melting point": "136 to 138"}, {"smiles": "CCc1cccc(N(C)C(=O)c2cnc3c(C(F)(F)F)cccc3c2-c2ccccc2)c1", "note": "[Example 386, N-(3-ETHYLPHENYL)-N-METHYL-4-PHENYL-8-(TRIFLUOROMETHYL)QUINOLINE-3-CARBOXAMIDE]", "melting point": "144 to 146"}, {"smiles": "COc1ccccc1N(C)C(=O)c1cnc2c(C(F)(F)F)cccc2c1-c1ccccc1", "note": "[Example 387, N-(2-METHOXYPHENYL)-N-METHYL-4-PHENYL-8-(TRIFLUOROMETHYL)QUINOLINE-3-CARBOXAMIDE]", "melting point": 138}, {"smiles": "CN(C(=O)c1cnc2c(C(F)(F)F)cccc2c1-c1ccccc1)c1ccc(F)cc1", "note": "[Example 388, N-(4-FLUOROPHENYL)-N-METHYL-4-PHENYL-8-(TRIFLUOROMETHYL)QUINOLINE-3-CARBOXAMIDE]", "melting point": "138 to 140"}, {"smiles": "CN(C(=O)c1cnc2c(C(F)(F)F)cccc2c1-c1ccccc1)c1cccc(F)c1", "note": "[Example 389, N-(3-FLUOROPHENYL)-N-METHYL-4-PHENYL-8-(TRIFLUOROMETHYL)QUINOLINE-3-CARBOXAMIDE]", "melting point": "200 to 202"}, {"smiles": "FC(F)(F)c1cccc2c(-c3ccccc3)c(-c3ccccc3)cnc12", "note": "[Example 390, 3,4-DIPHENYL-8-(TRIFLUOROMETHYL)QUINOLINE]", "melting point": "138 to 140"}, {"smiles": "Oc1cccc(-c2c(-c3ccccc3)cnc3c(C(F)(F)F)cccc23)c1", "note": "[Example 391, 3-[3-PHENYL-8-(TRIFLUOROMETHYL)QUINOLIN-4-YL]PHENOL]", "melting point": 123}, {"smiles": "Oc1cc(-c2c(-c3ccccc3)cnc3c(C(F)(F)F)cccc23)ccc1Cl", "note": "[Example 392, 2-CHLORO-5-[3-PHENYL-8-(TRIFLUOROMETHYL)QUINOLIN-4-YL]PHENOL]", "melting point": 252}, {"smiles": "COc1cc(-c2c(-c3ccccc3)cnc3c(C(F)(F)F)cccc23)ccc1Cl", "note": "[Example 393, 4-(4-CHLORO-3-METHOXYPHENYL)-3-PHENYL-8-(TRIFLUOROMETHYL)QUINOLINE]", "melting point": "172 to 174"}, {"smiles": "Nc1cccc(-c2c(-c3ccccc3)cnc3c(C(F)(F)F)cccc23)c1", "note": "[Example 395, {3-[3-PHENYL-8-(TRIFLUOROMETHYL)QUINOLIN-4-YL]PHENYL}AMINE]", "melting point": "163 to 165"}, {"smiles": "O=C(O)Cc1ccc(COc2cccc(-c3c(-c4ccccc4)cnc4c(C(F)(F)F)cccc34)c2)cc1", "note": "[Example 398, [4-({3-[3-PHENYL-8-(TRIFLUOROMETHYL)QUINOLIN-4-YL]PHENOXY}METHYL)PHENYL]ACETIC ACID]", "melting point": 122}, {"smiles": "FC(F)(F)c1cccc2c(-c3ccccc3)c(Oc3ccccc3)cnc12", "note": "[Example 407, 3-PHENOXY-4-PHENYL-8-(TRIFLUOROMETHYL)QUINOLINE]", "melting point": 122}, {"smiles": "FC(F)(F)c1cccc2c(-c3ccccc3)c(Sc3ccccc3)cnc12", "note": "[Example 411, 4-PHENYL-3-(PHENYLTHIO)-8-(TRIFLUOROMETHYL)QUINOLINE]", "melting point": "139 to 141"}, {"smiles": "Oc1ccc(F)c(-c2c(-c3ccccc3)cnc3c(C(F)(F)F)cccc23)c1", "note": "[Example 412, 4-FLUORO-3-[3-PHENYL-8-(TRIFLUOROMETHYL)QUINOLIN-4-YL]PHENOL]", "melting point": 85}, {"smiles": "Oc1cccc(-c2c(-c3ccccc3F)cnc3c(C(F)(F)F)cccc23)c1", "note": "[Example 458, 3-[3-(2-FLUOROPHENYL)-8-(TRIFLUOROMETHYL)QUINOLIN-4-YL]PHENOL]", "melting point": "186 to 187"}, {"smiles": "Cc1nc2c(C(F)(F)F)cccc2c(-c2ccccc2)c1C(=O)c1ccccc1", "note": "[Example 477, [2-METHYL-4-PHENYL-8-(TRIFLUOROMETHYL)QUINOLIN-3-YL](PHENYL)METHANONE]", "melting point": "175 to 177"}, {"smiles": "COC(=O)c1ccc(COc2cccc(-c3c(C(=O)c4ccccc4)cnc4c(C(F)(F)F)cccc34)c2)c(OC)c1", "note": "[Example 507, METHYL-4-({3-[3-BENZOYL-8-(TRIFLUOROMETHYL)QUINOLIN-4-YL]PHENOXY}METHYL)-3-METHOXYBENZOATE]", "melting point": "60 to 63"}, {"smiles": "O=C(O)c1ccc(COc2cccc(-c3c(-c4ccccc4)cnc4c(C(F)(F)F)cccc34)c2)cc1", "note": "[Example 512, 4-({3-[3-PHENYL-8-(TRIFLUOROMETHYL)QUINOLIN-4-YL]PHENOXY}METHYL)BENZOIC ACID]", "melting point": "108 to 112"}, {"smiles": "COc1cc(C(=O)O)ccc1COc1cccc(-c2c(C(=O)c3ccccc3)cnc3c(C(F)(F)F)cccc23)c1", "note": "[Example 515, 4-({3-[3-BENZOYL-8-(TRIFLUOROMETHYL)QUINOLIN-4-YL]PHENOXY}METHYL)-3METHOXY-BENZOIC ACID]", "melting point": "100 to 110"}]}]}
